From US10792249B2, “High drug loading pharmaceutical compositions” (AcrysPharm LLC, priority 2017, dated 2020)

Assay: Preliminary screening of ibuprofen solubility in HPMC
Format: physicochemical
Settings: 0.5 part ibuprofen in 1 part HPMC w/w
From the text: As listed in Table 4, […] process, which is a common procedure to generate glass-solution solid dispersion (Newman, ‘Pharmaceutical Amorphous Solid Dispersions’, Wiley (2015)). […] Therefore, these dispersions exceed the solubility limit of ibuprofen in HPMC.

solubility of ibuprofen in HPMC: about 50 wt % of HPMC
Structure (SMILES): CC(C)Cc1ccc(C(C)C(=O)O)cc1 (racemic) [ibuprofen]
